PubChem BioAssay AID248 (DTP/NCI, 2004)
“And” between values parts separate entries of the source, which are not always exact repeats. Equal values may be shown once. Toxic doses and inconclusive results are not listed. No stated cut-off is given here; in the data, active means T/C of 150% or more; inactive means T/C below 125%.

Tested on: L1210 leukemia ip in BDF1 mice, survival T/C
Assay: NCI In Vivo Anticancer Drug Screen. Data for tumor model L1210 Leukemia (intraperitoneal) in B6D2F1 (BDF1) mice
Settings: endpoint: mean survival time, higher = longer survival
Summary of the method: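 Transplantable tumor model; survival measured in treated vs vehicle control mice. Value = treated/control.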

[1] = dose: 100.0 mg/kg/injection, schedule: Q04DX003 (ip), vehicle: saline with Tween-80
[2] = dose: 200.0 mg/kg/injection, schedule: Q04DX003 (ip), vehicle: saline with Tween-80
[3] = dose: 400.0 mg/kg/injection, schedule: Q04DX003 (ip), vehicle: saline with Tween-80
[4] = dose: 100.0 mg/kg/injection, schedule: Q01DX009 (ip), vehicle: Klucel (hydroxypropylcellulose) (HPC)
[5] = dose: 100.0 mg/kg/injection, schedule: Q01DX009 (ip), vehicle: saline with Tween-80
[6] = dose: 200.0 mg/kg/injection, schedule: Q01DX009 (ip), vehicle: saline with Tween-80
[7] = dose: 400.0 mg/kg/injection, schedule: Q01DX009 (ip), vehicle: saline with Tween-80
[8] = dose: 100.0 mg/kg/injection, schedule: Q04DX002 (ip), vehicle: saline with Tween-80
[9] = dose: 200.0 mg/kg/injection, schedule: Q04DX002 (ip), vehicle: saline with Tween-80
[10] = dose: 400.0 mg/kg/injection, schedule: Q04DX002 (ip), vehicle: saline with Tween-80
[11] = dose: 100.0 mg/kg/injection, schedule: Q04DX003 (ip), vehicle: Klucel (hydroxypropylcellulose) (HPC)
[12] = dose: 200.0 mg/kg/injection, schedule: Q04DX003 (ip), vehicle: Klucel (hydroxypropylcellulose) (HPC)
[13] = dose: 100.0 mg/kg/injection, schedule: Q01DX001 (ip), vehicle: saline
[14] = dose: 200.0 mg/kg/injection, schedule: Q01DX001 (ip), vehicle: saline
[15] = dose: 400.0 mg/kg/injection, schedule: Q01DX001 (ip), vehicle: saline
[16] = dose: 100.0 mg/kg/injection, schedule: Q04DX003 (ip), vehicle: saline
[17] = dose: 200.0 mg/kg/injection, schedule: Q04DX003 (ip), vehicle: saline
[18] = dose: 400.0 mg/kg/injection, schedule: Q04DX003 (ip), vehicle: saline

Measured: T/C

CN(C)c1ccc(NC(=O)/C=C/C(=O)O)cc1
inactive: [1] 108 % of control | [2] 101 % of control | [3] 101 % of control

CN(C)c1ccc(/C=C/c2nc3ccccc3o2)cc1
inactive: [4] 95 % of control | dose: 200.0 mg/kg/injection, schedule: Q01DX009 (ip), vehicle: Klucel (hydroxypropylcellulose) (HPC) 95 % of control | dose: 400.0 mg/kg/injection, schedule: Q01DX009 (ip), vehicle: Klucel (hydroxypropylcellulose) (HPC) 94 % of control

CCCCCCCCCCCCOc1ccc(C)cc1
inactive: [5] 97 % of control | [1] 88 % of control | [6] 93 % of control | [2] 88 % of control | [7] 97 % of control | [3] 93 % of control

O=C1N=C(C(F)(F)F)N=C1c1[nH]c(C(F)(F)F)nc1O
inactive: [5] 95 % of control | [1] 104 % of control | [6] 98 % of control | [2] 100 % of control | [7] 102 % of control | [3] 105 % of control

COc1cc(/C=C(/C#N)C(=O)N2CCOCC2)cc(OC)c1OC
inactive: [5] 87 % of control | [8] 90 % of control | [6] 93 % of control | [9] 104 % of control | [7] 93 % of control | [10] 101 % of control

NS(=O)(=O)c1ccc(NC(=S)NC(=O)c2ccc(Cl)cc2Cl)cc1
inactive: [5] 89 % of control and 90 % of control | [8] 101 % of control and 92 % of control | [6] 96 % of control and 89 % of control | [9] 97 % of control and 90 % of control | [7] 93 % of control and 89 % of control | [10] 86 % of control and 92 % of control

CC(=O)C(=Cc1ccc(Cl)c(Cl)c1)C(C)=O
inactive: [4] 100 % of control | [11] 96 % of control | [12] 96 % of control | dose: 400.0 mg/kg/injection, schedule: Q04DX003 (ip), vehicle: Klucel (hydroxypropylcellulose) (HPC) 86 % of control

CC12CCC(=O)C=C1CCC1C2C(=O)CC2(C)C1CCC2(O)C(=O)CSc1ncnc2nc[nH]c12 (stereo not given)
inactive: dose: 100.0 mg/kg/injection, schedule: Q01DX001 (sc), vehicle: steriod suspending solution 103 % of control | dose: 200.0 mg/kg/injection, schedule: Q01DX001 (sc), vehicle: steriod suspending solution 106 % of control | dose: 400.0 mg/kg/injection, schedule: Q01DX001 (sc), vehicle: steriod suspending solution 112 % of control

COC(=O)c1cc2c(cc1N=Cc1ccccc1Cl)OCO2
inactive: dose: 75.0 mg/kg/injection, schedule: Q04DX003 (ip), vehicle: Klucel (hydroxypropylcellulose) (HPC) 101 % of control | dose: 100.0 mg/kg/injection, schedule: Q01DX001 (ip), vehicle: Klucel (hydroxypropylcellulose) (HPC) 97 % of control | dose: 150.0 mg/kg/injection, schedule: Q04DX003 (ip), vehicle: Klucel (hydroxypropylcellulose) (HPC) 98 % of control | dose: 200.0 mg/kg/injection, schedule: Q01DX001 (ip), vehicle: Klucel (hydroxypropylcellulose) (HPC) 95 % of control | dose: 300.0 mg/kg/injection, schedule: Q04DX003 (ip), vehicle: Klucel (hydroxypropylcellulose) (HPC) 97 % of control | dose: 400.0 mg/kg/injection, schedule: Q01DX001 (ip), vehicle: Klucel (hydroxypropylcellulose) (HPC) 95 % of control

CN1CCC(OC(=O)C(O)C2CCCCC2)CC1 (stereo not given)
inactive: [11] 104 % of control | [12] 103 % of control

Cc1ccc(Nc2ncnc3nc[nH]c23)cc1CN(CCO)CCO
inactive: [13] 101 % of control | [14] 101 % of control | [15] 95 % of control

CC1=C(C)C(=O)C(CC2=C(C)C(=O)C(C)=C(C)C2=O)=C(C)C1=O
inactive: dose: 100.0 mg/kg/injection, schedule: Q01DX005 (ip), vehicle: saline with Tween-80 101 % of control | [5] 96 % of control | dose: 200.0 mg/kg/injection, schedule: Q01DX005 (ip), vehicle: saline with Tween-80 96 % of control | [6] 100 % of control | dose: 400.0 mg/kg/injection, schedule: Q01DX005 (ip), vehicle: saline with Tween-80 104 % of control | [7] 96 % of control

C[N+](C)(C)CC(=O)N/N=C\c1c(O)ccc2ccccc12
inactive: dose: 25.0 mg/kg/injection, schedule: Q04DX003 (ip), vehicle: saline with Tween-80 97 % of control | dose: 50.0 mg/kg/injection, schedule: Q04DX003 (ip), vehicle: saline with Tween-80 104 % of control | [11] 100 % of control | [1] 97 % of control | [12] 93 % of control

CC(=O)C(N=Nc1nn[nH]n1)C(C)=O
inactive: [16] 104 % of control | [17] 93 % of control | [18] 96 % of control

CCCCCCCCCCCCCCCCC(C(=O)OCC)C(=O)c1ccccc1 (stereo not given)
inactive: [1] 95 % of control | [2] 95 % of control | [3] 91 % of control

C/C=C/N1CCN(/C=C/C)C1=O
inactive: dose: 25.0 mg/kg/injection, schedule: Q04DX002 (ip), vehicle: Klucel (hydroxypropylcellulose) (HPC) 96 % of control | dose: 50.0 mg/kg/injection, schedule: Q04DX002 (ip), vehicle: Klucel (hydroxypropylcellulose) (HPC) 102 % of control | dose: 100.0 mg/kg/injection, schedule: Q04DX002 (ip), vehicle: Klucel (hydroxypropylcellulose) (HPC) 90 % of control

CC1(C)CC2(CC3(C1)SCCS3)SCCS2
inactive: [13] 94 % of control | dose: 100.0 mg/kg/injection, schedule: Q04DX003 (ip), vehicle: acetone 89 % of control | [14] 97 % of control | dose: 200.0 mg/kg/injection, schedule: Q04DX003 (ip), vehicle: acetone 96 % of control | [15] 89 % of control | dose: 400.0 mg/kg/injection, schedule: Q04DX003 (ip), vehicle: acetone 91 % of control

CC1CN1P(=O)(N1CCCCC1)N1CC1C (stereo not given)
inactive: dose: 11.0 mg/kg/injection, schedule: Q01DX Z (ip), vehicle: carboxymethylcellulose (CMC) 97 % of control | dose: 11.0 mg/kg/injection, schedule: Q01DX Z (ip), vehicle: saline 109 % of control | dose: 13.0 mg/kg/injection, schedule: Q01DX Z (ip), vehicle: carboxymethylcellulose (CMC) 102 % of control | dose: 17.0 mg/kg/injection, schedule: Q01DX Z (ip), vehicle: carboxymethylcellulose (CMC) 119 % of control | dose: 17.0 mg/kg/injection, schedule: Q01DX Z (ip), vehicle: saline 116 % of control | dose: 20.0 mg/kg/injection, schedule: Q01DX Z (ip), vehicle: carboxymethylcellulose (CMC) 102 % of control | dose: 25.0 mg/kg/injection, schedule: Q01DX Z (ip), vehicle: carboxymethylcellulose (CMC) 104 % of control and 116 % of control | dose: 25.0 mg/kg/injection, schedule: Q01DX Z (ip), vehicle: saline 104 % of control | dose: 30.0 mg/kg/injection, schedule: Q01DX Z (ip), vehicle: carboxymethylcellulose (CMC) 105 % of control | dose: 38.0 mg/kg/injection, schedule: Q01DX Z (ip), vehicle: carboxymethylcellulose (CMC) 115 % of control and 116 % of control | dose: 45.0 mg/kg/injection, schedule: Q01DX Z (ip), vehicle: carboxymethylcellulose (CMC) 100 % of control and 115 % of control | dose: 57.0 mg/kg/injection, schedule: Q01DX Z (ip), vehicle: saline 118 % of control | dose: 85.0 mg/kg/injection, schedule: Q01DX Z (ip), vehicle: carboxymethylcellulose (CMC) 109 % of control | dose: 86.0 mg/kg/injection, schedule: Q01DX Z (ip), vehicle: saline 102 % of control and 113 % of control

CN(C)/N=N/c1nc[nH]c1C#N
inactive: [5] 107 % of control | [1] 110 % of control | [6] 115 % of control | [2] 98 % of control | [3] 102 % of control

ClCCN(CCCl)c1ccc(C=Nc2ccc(-c3csc(Cc4ccccc4)n3)c(Cl)c2)cc1
inactive: dose: 100.0 mg/kg/injection, schedule: Q01DX001 (ip), vehicle: carboxymethylcellulose (CMC) 93 % of control | dose: 200.0 mg/kg/injection, schedule: Q01DX001 (ip), vehicle: carboxymethylcellulose (CMC) 88 % of control | dose: 400.0 mg/kg/injection, schedule: Q01DX001 (ip), vehicle: carboxymethylcellulose (CMC) 87 % of control

NC(=O)c1cc(C(=O)O)ccc1N(N)O
inactive: [1] 101 % of control | [2] 101 % of control | [3] 90 % of control

c1ccc(CC(Cc2ccccc2)=[N+]2CCCC2)cc1
inactive: dose: 100.0 mg/kg/injection, schedule: Q01DX009 (ip), vehicle: saline 91 % of control | [16] 104 % of control | dose: 200.0 mg/kg/injection, schedule: Q01DX009 (ip), vehicle: saline 92 % of control | [17] 98 % of control | dose: 400.0 mg/kg/injection, schedule: Q01DX009 (ip), vehicle: saline 101 % of control | [18] 105 % of control
